The target of assay [1] is T1, Small conductance calcium-activated potassium channel protein 3 (Homo sapiens, UniProt Q9UGI6). The experiment in a line: Inhibition of Kca2.3 channel expressed in HEK293 cells at 30 uM by thallium flux assay. Format: cell-based.
In assay [2] the target is T1, Small conductance calcium-activated potassium channel protein 3. The experiment in a line: Inhibition of Kca2.3 channel expressed in HEK293 cells by thallium flux assay. Format: cell-based.
A short description of assay [3]: Inhibition of Kca channel.
In assay [4] the target is T1, Small conductance calcium-activated potassium channel protein 3. The experiment in a line: Inhibition of Kca2.3 channel expressed in HEK293 cells by electrophysiology assay. Format: cell-based.
Assay [5] shares this target. The experiment in a line: Displacement of [125I]apamin from Kca2.3 channel expressed in HEK293 cells by scintillation proximity assay. Format: cell-based.
Assay [6] has as its target Small conductance calcium-activated potassium channel protein 1 (Homo sapiens, UniProt Q92952). As to the kind of experiment: Inhibition of Kca2.1 channel expressed in HEK293 cells by thallium flux assay. Format: cell-based.
Assay [7] addresses T2, Small conductance calcium-activated potassium channel protein 2 (Homo sapiens, UniProt Q9H2S1). As to the kind of experiment: Inhibition of Kca2.2 channel expressed in HEK293 cells by thallium flux assay. Format: cell-based.
The target in assay [8] is Intermediate conductance calcium-activated potassium channel protein 4 (Homo sapiens) (UniProt O15554). The experiment in a line: Inhibition of Kca3.1 channel expressed in HEK293 cells by thallium flux assay. Format: cell-based.
Intermediate conductance calcium-activated potassium channel protein 4 (Homo sapiens), sequence (O15554 whole entry): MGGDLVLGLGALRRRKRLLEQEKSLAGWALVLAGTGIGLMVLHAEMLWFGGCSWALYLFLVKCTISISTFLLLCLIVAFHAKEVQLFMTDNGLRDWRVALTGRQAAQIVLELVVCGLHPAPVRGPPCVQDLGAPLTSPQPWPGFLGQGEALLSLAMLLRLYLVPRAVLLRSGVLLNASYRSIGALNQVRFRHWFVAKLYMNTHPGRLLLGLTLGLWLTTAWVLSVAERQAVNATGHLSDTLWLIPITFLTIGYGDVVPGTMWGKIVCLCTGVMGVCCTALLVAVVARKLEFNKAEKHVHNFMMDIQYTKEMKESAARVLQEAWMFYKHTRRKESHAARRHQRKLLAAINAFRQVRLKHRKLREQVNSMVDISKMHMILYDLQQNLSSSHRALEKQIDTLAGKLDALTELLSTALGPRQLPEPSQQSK
The target in assay [9] is T2, Small conductance calcium-activated potassium channel protein 2. The experiment in a line: Displacement of [125I]apamin from Kca2.2 channel expressed in HEK293 cells. Format: cell-based.
Assay [10] can be described thus: Inhibition of guinea-pig Kca channel. Also on record: species or system Cavia porcellus.
The target of assay [11] is Intermediate conductance calcium-activated potassium channel protein 4 (Homo sapiens) (UniProt O15554). As to the kind of experiment: Inhibition of Kca3.1 channel expressed in HEK293 cells at 30 uM by thallium flux assay. Format: cell-based.

pIC50, pKi: −log10 of the molar value. Activity calls are given as the source filed them. The calls are words filed in the database; no cut-off is given here. Peptide text beside a SMILES is read from it.

T1 sequence (Q9UGI6 whole entry): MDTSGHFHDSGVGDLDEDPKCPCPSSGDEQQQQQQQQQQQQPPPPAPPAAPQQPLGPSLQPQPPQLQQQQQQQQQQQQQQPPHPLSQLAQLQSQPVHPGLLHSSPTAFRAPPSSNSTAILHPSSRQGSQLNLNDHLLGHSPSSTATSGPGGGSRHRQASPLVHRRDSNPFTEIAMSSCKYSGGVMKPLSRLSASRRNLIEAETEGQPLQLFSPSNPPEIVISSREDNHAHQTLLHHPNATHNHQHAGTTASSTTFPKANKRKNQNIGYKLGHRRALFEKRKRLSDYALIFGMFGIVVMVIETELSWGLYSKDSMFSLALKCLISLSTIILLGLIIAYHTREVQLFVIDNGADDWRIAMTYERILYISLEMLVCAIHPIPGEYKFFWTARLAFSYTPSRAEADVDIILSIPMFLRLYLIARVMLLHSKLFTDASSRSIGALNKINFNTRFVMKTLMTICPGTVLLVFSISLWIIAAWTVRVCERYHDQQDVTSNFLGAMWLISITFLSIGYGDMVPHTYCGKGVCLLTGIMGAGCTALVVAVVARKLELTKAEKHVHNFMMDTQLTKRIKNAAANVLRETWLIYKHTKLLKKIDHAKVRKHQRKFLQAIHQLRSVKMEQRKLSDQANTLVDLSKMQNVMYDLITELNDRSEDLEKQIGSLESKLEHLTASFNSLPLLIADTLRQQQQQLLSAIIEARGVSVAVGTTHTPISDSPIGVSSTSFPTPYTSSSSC
T2 sequence (Q9H2S1 whole entry): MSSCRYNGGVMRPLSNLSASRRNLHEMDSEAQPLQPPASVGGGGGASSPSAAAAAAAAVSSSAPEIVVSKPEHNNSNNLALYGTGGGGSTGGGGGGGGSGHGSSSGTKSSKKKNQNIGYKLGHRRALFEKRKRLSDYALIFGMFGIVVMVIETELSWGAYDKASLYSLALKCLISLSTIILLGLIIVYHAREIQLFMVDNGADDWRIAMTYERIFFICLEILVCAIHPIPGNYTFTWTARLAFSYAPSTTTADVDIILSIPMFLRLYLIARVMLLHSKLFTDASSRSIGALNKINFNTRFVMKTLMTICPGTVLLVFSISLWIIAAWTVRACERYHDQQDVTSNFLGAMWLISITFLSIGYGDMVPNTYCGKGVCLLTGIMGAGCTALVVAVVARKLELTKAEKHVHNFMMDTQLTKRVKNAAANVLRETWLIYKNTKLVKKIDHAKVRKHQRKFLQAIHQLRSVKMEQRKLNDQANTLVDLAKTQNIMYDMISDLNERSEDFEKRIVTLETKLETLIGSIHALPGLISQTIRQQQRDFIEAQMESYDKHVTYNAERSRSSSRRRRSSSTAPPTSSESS
Small conductance calcium-activated potassium channel protein 1, sequence (Q92952 whole entry): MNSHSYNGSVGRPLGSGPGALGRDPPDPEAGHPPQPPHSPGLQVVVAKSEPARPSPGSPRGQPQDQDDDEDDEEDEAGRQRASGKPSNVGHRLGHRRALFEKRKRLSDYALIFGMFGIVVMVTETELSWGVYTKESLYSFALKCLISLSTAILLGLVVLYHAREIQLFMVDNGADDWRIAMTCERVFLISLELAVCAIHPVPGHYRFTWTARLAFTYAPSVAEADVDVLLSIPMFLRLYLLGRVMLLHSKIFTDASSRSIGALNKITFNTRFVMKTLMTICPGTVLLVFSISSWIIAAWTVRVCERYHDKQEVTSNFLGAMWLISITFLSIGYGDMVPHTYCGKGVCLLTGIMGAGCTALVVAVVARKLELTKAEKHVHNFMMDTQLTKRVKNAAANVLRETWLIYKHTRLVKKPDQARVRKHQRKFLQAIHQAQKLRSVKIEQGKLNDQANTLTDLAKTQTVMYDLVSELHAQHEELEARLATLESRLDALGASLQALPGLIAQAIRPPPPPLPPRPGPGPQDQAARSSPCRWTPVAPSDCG

As to `c1ccc(Nc2nc(-c3ccccc3)cs2)cc1`, the inhibition in assay [1] turned out to be 18%. In addition, the negative logarithm of the IC50 (pIC50) in [2] is under 4.52.

On to `c1ccc(Nc2nc(-c3ccccn3)cs2)cc1`, for which the inhibition in assay [1] is 9%.

Take `c1ccc2c(c1)CCC[C@H]2Nc1nc2ccccc2[nH]1`: the pIC50 in [3] was 6.30.

With `c1ccc(Nc2nc(-c3ccccn3)cs2)nc1`, in assay [1], the inhibition came to 89%. Besides, the negative logarithm of the IC50 (pIC50) in assay [2] is 6.27; in assay [4], 6.54; in [5], 7.60; in [6], 7.37; in assay [7], 6.91; in [9], 6.27. For the same compound, the result in assay [8] was inactive.

With `c1ccc(-c2csc(Nc3cccnc3)n2)nc1`, in assay [1], the inhibition amounted to 45%.

On to `c1ccc(Cc2nc(-c3ccccn3)cs2)nc1`, for which the inhibition in [1] is 15%. The negative-log IC50 (pIC50) in assay [2] is under 4.52.

In the case of `Cc1cc(N)c2ccccc2[n+]1CCCCCCCCCC[n+]1c(C)cc(N)c2ccccc21` [DEQUALINIUM CHLORIDE], the pIC50 in [2] was 5.89; in assay [4] it was 5.70; in assay [3] it was 6.00.

Take `c1ccc(-c2csc(Nc3ncccn3)n2)nc1`: in assay [1], the inhibition turned out to be 24%. Also, in assay [2], the pIC50 is under 4.52.

Turning to `c1ccc(Nc2nc(-c3cccnc3)cs2)nc1`, the inhibition in assay [1] worked out at 14%. For the same compound, the negative-log IC50 (pIC50) in [2] is under 4.52.

As to `c1ccc(-c2csc(Nc3ccncc3)n2)nc1`, the inhibition in [1] was found to be 14%. Moreover, in [2], the negative-log IC50 (pIC50) was under 4.52.

In the case of `c1cc2cc(c1)C[n+]1ccc(c3ccccc31)NCc1ccc(cc1)CNc1cc[n+](c3ccccc13)C2`, in assay [3], the negative logarithm of the IC50 (pIC50) is 8.52.

Consider `Ic1ccc(Nc2nc(-c3ccccn3)cs2)nc1`, for which the inhibition in assay [1] stood at 29%. Also, the negative logarithm of the IC50 (pIC50) in assay [2] is under 4.52.

`CC[C@H](C)[C@H](NC(=O)[C@H](CS)NC(=O)[C@H](CCCCN)NC(=O)CNC(=O)[C@H](CC(C)C)NC(=O)[C@H](CC(C)C)NC(=O)CNC(=O)[C@H](CC(C)C)NC(=O)[C@H](CO)NC(=O)[C@H](CCCNC(=N)N)NC(=O)[C@H](CS)NC(=O)[C@H](CO)NC(=O)[C@H](CC(C)C)NC(=O)[C@H](CCC(N)=O)NC(=O)[C@H](CS)NC(=O)[C@H](CCSC)NC(=O)[C@H](CCCNC(=N)N)NC(=O)[C@H](CC(C)C)NC(=O)[C@H](CC(N)=O)NC(=O)[C@H](CS)NC(=O)[C@H](Cc1ccccc1)NC(=O)[C@H](C)N)C(=O)NCC(=O)N[C@@H](CC(=O)O)C(=O)N[C@@H](CCCCN)C(=O)N[C@@H](CS)C(=O)N[C@@H](CCC(=O)O)C(=O)N[C@@H](CS)C(=O)N[C@H](C(=O)N[C@@H](CCCCN)C(=O)N[C@@H](Cc1cnc[nH]1)C(=O)O)C(C)C` [Scyllatoxin] (H-AFCNLRMCQLSCRSLGLLGKCIGDKCECVKH-OH) showed a negative logarithm of the Ki (pKi) in assay [10] of 10.12.

Turning to `c1ccc(-c2csc(-c3ccccn3)n2)nc1`, the inhibition in [1] is 16%. Further, the negative-log IC50 (pIC50) in assay [2] was under 4.52.

Consider `c1ccc(Nc2nc(-c3ccncc3)cs2)nc1`, for which the negative logarithm of the IC50 (pIC50) in [2] was under 4.52.

On to `Cc1ccnc(Nc2nc(-c3ccccn3)cs2)c1`, for which the inhibition in [1] was 98%; in assay [11], 10%.

Regarding `FC(F)(F)c1cnc(Nc2nc(-c3ccccn3)cs2)c(Cl)c1`, in assay [1], the inhibition was 8%. In addition, the pIC50 in assay [2] is under 4.52.

The values are drawn from ChEMBL document CHEMBL1144194, “Initial SAR studies on apamin-displacing 2-aminothiazole blockers of calcium-activated small conductance potassium channels” (Bioorg Med Chem Lett, 2008).
